Reference: ChEMBL document CHEMBL3856202, “Synthesis and screening of triazolopyrimidine scaffold as multi-functional agents for Alzheimer's disease therapies” (Eur J Med Chem, 2016)
The source made the active and inactive calls. The rule behind the calls is not given here.

Legend:
[1] = molecular target: Amyloid-beta precursor protein (Homo sapiens) (UniProt P05067); conditions: at 25 µM
Description: Inhibition of amyloid beta (1 to 42) (unknown origin) self-aggregation at 25 uM measured after 48 hrs by ThT-assay

[2] = molecular target: Acetylcholinesterase (Electrophorus electricus) (UniProt O42275); conditions: at 100 µM
Description: Inhibition of electric eel AChE-mediated amyloid beta (1 to 42) (unknown origin) co-aggregation at 100 uM measured after 48 hrs by ThT-assay

Acetylcholinesterase = Acetylcholinesterase (Electrophorus electricus, UniProt O42275)
Description: Inhibition of electric eel AChE preincubated for 5 mins followed by addition of acetylthiocholine iodide as substrate measured after 2 mins by Ellman's method

Cholinesterase = Cholinesterase (Equus caballus, UniProt P81908)
Description: Inhibition of equine serum BuChE preincubated for 5 mins followed by addition of butyrylthiocholine iodide as substrate measured after 2 mins by Ellman's method

SH-SY5Y [3] = experiment: Neuroprotective activity in human SH-SY5Y cells assessed as reduction of H2O2-induced neurotoxicity measured as increase in cell viability at 1 to 20 uM incubated for 24 hrs with H2O2-challenge by MTT assay; format: functional, cell-based
[4] = Neuroprotective activity in human SH-SY5Y cells assessed as reduction of amyloid beta (1 to 42)-induced neurotoxicity measured as cell viability at 5 to 25 uM preincubated 30 mins followed by amyloid beta (1 to 42) peptide addition for 24 hrs by MTT assay relative to control; format: functional
[5] = molecular target: Amyloid-beta precursor protein (Homo sapiens) (UniProt P05067); experiment: Inhibition of amyloid beta (1 to 42) (unknown origin) aggregation assessed at 25 uM after 24 to 48 hrs by transmission electron microscopic analysis
SH-SY5Y [6] = experiment: Neuroprotective activity in human SH-SY5Y cells assessed as reduction of amyloid beta (1 to 42)-induced neurotoxicity measured as cell viability preincubated 30 mins followed by amyloid beta (1 to 42) peptide addition for 24 hrs by MTT assay; format: functional, cell-based
SH-SY5Y [7] = experiment: Neuroprotective activity in human SH-SY5Y cells assessed as reduction of H2O2-induced neurotoxicity measured as morphological changes at 10 uM incubated for 24 hrs with H2O2-challenge by microscopy; format: functional, cell-based
[8] = Cytotoxicity against human SH-SY5Y cells assessed as cell viability at 1 to 50 uM measured after 24 hrs by MTT assay; format: toxicity, cell-based
SH-SY5Y [9] = experiment: Neuroprotective activity in human SH-SY5Y cells assessed as reduction of amyloid beta (1 to 42)-induced neurotoxicity measured as morphological changes preincubated 30 mins followed by amyloid beta (1 to 42) peptide addition for 24 hrs by microscopy; format: functional, cell-based
[10] = molecular target: Acetylcholinesterase (Electrophorus electricus) (UniProt O42275); experiment: Potency index, ratio of IC50 for rivastigmine to IC50 for test compound against electric eel AChE
[11] = molecular target: Acetylcholinesterase (Electrophorus electricus) (UniProt O42275); experiment: Potency index, ratio of IC50 for galantamine to IC50 for test compound against electric eel AChE
[12] = molecular target: Cholinesterase (Equus caballus) (UniProt P81908); experiment: Potency index, ratio of IC50 donepezil to IC50 for test compound against equine serum BuChE
[13] = molecular target: Acetylcholinesterase (Electrophorus electricus) (UniProt O42275); experiment: Potency index, ratio of IC50 for tacrine to IC50 for test compound against electric eel AChE
[14] = molecular target: Acetylcholinesterase (Electrophorus electricus) (UniProt O42275); conditions: at 12 to 42 nM

Sequence of Amyloid-beta precursor protein (Homo sapiens) (P05067 whole entry): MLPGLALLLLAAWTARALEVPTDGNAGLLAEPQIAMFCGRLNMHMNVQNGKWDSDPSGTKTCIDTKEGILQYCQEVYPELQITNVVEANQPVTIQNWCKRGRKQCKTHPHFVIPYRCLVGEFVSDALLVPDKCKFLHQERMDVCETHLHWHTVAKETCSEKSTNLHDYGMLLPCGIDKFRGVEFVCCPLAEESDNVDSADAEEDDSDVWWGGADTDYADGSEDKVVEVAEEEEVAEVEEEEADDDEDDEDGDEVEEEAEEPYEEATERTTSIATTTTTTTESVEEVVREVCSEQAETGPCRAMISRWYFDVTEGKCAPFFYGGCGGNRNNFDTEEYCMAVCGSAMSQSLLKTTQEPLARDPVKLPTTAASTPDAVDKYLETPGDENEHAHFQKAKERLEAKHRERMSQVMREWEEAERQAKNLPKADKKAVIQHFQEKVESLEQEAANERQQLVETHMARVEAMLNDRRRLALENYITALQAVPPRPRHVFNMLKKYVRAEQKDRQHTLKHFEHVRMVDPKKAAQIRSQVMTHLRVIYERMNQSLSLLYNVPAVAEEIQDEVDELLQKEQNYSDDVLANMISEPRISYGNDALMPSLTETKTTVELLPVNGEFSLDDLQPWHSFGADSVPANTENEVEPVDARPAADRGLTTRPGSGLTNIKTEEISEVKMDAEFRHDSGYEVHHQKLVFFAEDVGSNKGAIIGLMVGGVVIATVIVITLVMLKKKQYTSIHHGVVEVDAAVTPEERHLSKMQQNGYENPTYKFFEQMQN
Sequence of Acetylcholinesterase (Electrophorus electricus) (O42275 24-633 limits assumed): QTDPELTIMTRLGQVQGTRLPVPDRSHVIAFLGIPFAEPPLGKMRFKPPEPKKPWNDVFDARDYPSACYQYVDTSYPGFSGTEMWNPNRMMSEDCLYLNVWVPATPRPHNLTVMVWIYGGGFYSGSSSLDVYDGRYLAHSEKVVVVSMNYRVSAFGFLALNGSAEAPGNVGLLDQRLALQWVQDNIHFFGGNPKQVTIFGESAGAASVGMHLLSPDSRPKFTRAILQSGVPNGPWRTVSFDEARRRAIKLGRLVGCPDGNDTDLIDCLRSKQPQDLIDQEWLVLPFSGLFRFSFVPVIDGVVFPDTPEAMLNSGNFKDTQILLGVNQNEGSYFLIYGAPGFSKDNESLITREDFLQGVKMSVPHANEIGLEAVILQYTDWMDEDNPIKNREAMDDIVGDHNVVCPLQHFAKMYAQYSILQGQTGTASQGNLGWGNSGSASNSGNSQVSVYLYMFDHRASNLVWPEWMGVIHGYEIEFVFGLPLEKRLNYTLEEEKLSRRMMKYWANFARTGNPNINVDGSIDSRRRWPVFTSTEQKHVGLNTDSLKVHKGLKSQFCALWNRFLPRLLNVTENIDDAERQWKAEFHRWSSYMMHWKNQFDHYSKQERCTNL
Sequence of Acetylcholinesterase (O42275 whole entry): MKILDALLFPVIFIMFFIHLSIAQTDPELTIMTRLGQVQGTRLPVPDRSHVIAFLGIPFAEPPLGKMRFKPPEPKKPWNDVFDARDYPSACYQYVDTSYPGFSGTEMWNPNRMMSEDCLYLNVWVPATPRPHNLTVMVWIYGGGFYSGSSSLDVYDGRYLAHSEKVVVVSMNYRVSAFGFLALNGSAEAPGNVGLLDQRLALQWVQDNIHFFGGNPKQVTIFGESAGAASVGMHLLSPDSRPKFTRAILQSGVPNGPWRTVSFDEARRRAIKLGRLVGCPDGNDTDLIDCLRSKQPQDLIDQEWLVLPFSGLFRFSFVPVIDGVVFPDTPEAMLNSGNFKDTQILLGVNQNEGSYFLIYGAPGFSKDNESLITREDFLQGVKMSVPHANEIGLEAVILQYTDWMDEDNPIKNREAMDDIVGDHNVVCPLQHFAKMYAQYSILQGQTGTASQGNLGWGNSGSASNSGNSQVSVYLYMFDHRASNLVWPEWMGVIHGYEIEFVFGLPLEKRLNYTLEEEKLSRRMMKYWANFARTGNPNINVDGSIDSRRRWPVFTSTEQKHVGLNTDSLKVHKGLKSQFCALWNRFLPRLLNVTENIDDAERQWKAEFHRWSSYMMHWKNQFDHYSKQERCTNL
Sequence of Cholinesterase (P81908 whole entry): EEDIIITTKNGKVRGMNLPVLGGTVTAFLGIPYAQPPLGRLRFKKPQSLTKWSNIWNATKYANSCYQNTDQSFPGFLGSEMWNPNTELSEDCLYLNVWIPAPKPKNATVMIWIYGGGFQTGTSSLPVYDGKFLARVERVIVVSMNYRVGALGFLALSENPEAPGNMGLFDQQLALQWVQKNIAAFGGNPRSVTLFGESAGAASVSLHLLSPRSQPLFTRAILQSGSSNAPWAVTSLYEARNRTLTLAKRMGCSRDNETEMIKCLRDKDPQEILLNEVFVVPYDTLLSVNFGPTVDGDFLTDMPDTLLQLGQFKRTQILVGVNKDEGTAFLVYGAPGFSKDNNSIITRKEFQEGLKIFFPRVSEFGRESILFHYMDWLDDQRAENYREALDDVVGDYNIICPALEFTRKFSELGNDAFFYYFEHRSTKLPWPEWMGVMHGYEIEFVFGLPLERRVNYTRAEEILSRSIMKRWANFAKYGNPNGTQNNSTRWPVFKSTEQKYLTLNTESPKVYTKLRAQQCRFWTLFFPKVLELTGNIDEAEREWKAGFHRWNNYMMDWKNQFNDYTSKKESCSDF
Sequence of Cholinesterase (Equus caballus) (P81908 whole entry): as above

| Structure (SMILES) | inhibition [1] [%] | inhibition [2] [%] | IC50 (Acetylcholinesterase) [nM] | IC50 (Cholinesterase) [nM] | Activity (SH-SY5Y [3]) | Activity [4] | inhibition [5] | Activity (SH-SY5Y [6]) | Activity (SH-SY5Y [7]) | Activity [8] | Activity (SH-SY5Y [9]) | Ratio IC50 [10] | Ratio IC50 [11] | Ratio IC50 [12] | Ratio IC50 [13] | inhibition [14] |
| --- | --- | --- | --- | --- | --- | --- | --- | --- | --- | --- | --- | --- | --- | --- | --- | --- |
| CCOC(=O)c1cnc2ccc(C)cc2c1N1CCN(c2cc(C)nc3ncnn23)CC1 | 52.5 | 54.3 | 2640 | 4090 | – | – | – | – | – | – | – | – | – | – | – | – |
| CCOC(=O)c1cnc2c(F)cccc2c1N1CCN(c2ncccc2C#N)CC1 | 47.4 | 50.3 | 730 | 890 | – | – | – | – | – | – | – | – | – | – | – | – |
| CCOC(=O)c1cnc2ccc(OC)cc2c1N1CCN(c2cc(C)nc3ncnn23)CC1 | 61.6 | 68.7 | 760 | 2010 | Active | 79 - 83% | Active | Dose-dependent effect | Active | Non-Toxic | Active | – | – | – | – | – |
| CCOC(=O)c1cnc2ccc(F)cc2c1N1CCN(c2cc(C)nc3ncnn23)CC1 | 72.9 | 80.5 | 42 | 510 | Active | 79 - 83% | Active | Dose-dependent effect | Active | Non-Toxic | Active | 106 | 74 | 14 | 3.2 | Active |
| Cc1cc(N2CCN(c3ncccc3C#N)CC2)n2ncnc2n1 | 46.8 | 49.4 | 1390 | 780 | – | – | – | – | – | – | – | – | – | – | – | – |
| CCOC(=O)c1cnc2c(F)cccc2c1N1CCN(c2cc(C)nc3ncnn23)CC1 | 64.2 | 70.3 | 97 | 180 | Active | 79 - 83% | Active | Dose-dependent effect | Active | Non-Toxic | Active | 46 | 32 | 5 | – | – |
| CCOC(=O)c1cnc2ccc(F)cc2c1N1CCN(c2ncccc2C#N)CC1 | 54.9 | 59 | 580 | 1230 | – | – | – | – | – | – | – | – | – | – | – | – |
| CCOC(=O)c1cnc2ccc(C)cc2c1N1CCN(c2ncccc2C#N)CC1 | 27.3 | – | 3490 | 3000 | – | – | – | – | – | – | – | – | – | – | – | – |
| CCOC(=O)c1cnc2cc(C(F)(F)F)ccc2c1N1CCN(c2ncccc2C#N)CC1 | 44.2 | 47.8 | 880 | 980 | – | – | – | – | – | – | – | – | – | – | – | – |
| CCOC(=O)c1cnc2cc(C(F)(F)F)ccc2c1N1CCN(c2cc(C)nc3ncnn23)CC1 | 43.8 | 52 | 180 | 780 | – | – | – | – | – | – | – | – | – | – | – | – |
| CCOC(=O)c1cnc2ccc(OC)cc2c1N1CCN(c2ncccc2C#N)CC1 | 39.8 | – | 1100 | 1900 | – | – | – | – | – | – | – | – | – | – | – | – |
